Test results: patent US20130023504A1, “Modulation of Prostaglandin/Cyclooxygenase Metabolic Pathways” (HUNTER-FLEMING LIMITED, priority 2006, published 2013)
Marks after values point to notes of the source that are not given here.

What was measured:
[1] = test system: m-PGES1 mRNA; assay: m-PGES1 mRNA in human PBMC with and without TNF-α, quantitative RT-PCR; format: cell-based
Experimental: (§1) Whole blood was collected from donors in EDTA-supplemented pouches at the Etablissement Français du Sang (Brest, France). The PBMC were isolated then from whole blood under sterile conditions within 36 hours after collection. Gradient density centrifugation was carried out on Ficoll (Eurobio). After washing in RPMI 1640 medium (Eurobio), cells were suspended in RPMI 1640 medium supplemented with 10% heat-inactivated fetal calf serum (Eurobio), 2 mM glutamine (D. Dutscher), 100 U of penicillin/ml (D. Dutscher), and 100 μg of streptomycin/ml (D. Dutscher). Monocytes were selected by plastic adherence for 1 h and approximately 10^7 cells were plated in 6-well tissue culture plates (3 mL medium per well). All incubations were performed in a humidified incubator at 37° C. and 5% CO2. Cells were recovered and dispersed in 2 ml fresh incubation medium supplemented with either 7β-hydroxyEPIA, 7β-hydroxy-DHEA, or 7α-hydroxy-DHEA (in 20 μL ethanol) in the presence or absence of 0.01 μg/mL TNF-α (Sigma-Aldrich). Control incubations contained 20 μl ethanol but no steroid. Supernatants were collected after 4 h and 24 hours incubations for measurement of their PG contents and cells were used for subsequent RNA isolation. A single step extraction method using the Trizol Reagent (Invitrogen, Cergy-Pontoise, France) provided total RNA.
cDNAs were synthesized from TURBO DNase I—treated RNA (Ambion, Huntingdon, UK) using the Superscript first strand synthesis system kit (Invitrogen). RT-PCR amplification mixtures (50 μL) contained 2.5× RealMaster Mix/20×SYBR solution (11.25 μL) (Eppendorf, Le Pecq, France) and 200 nM forward and reverse primers. Reactions were run on a RealPlex ep gradient S mastercycler (Eppendorf). The cycling conditions were 10 minutes at 95° C. and 45 cycles at 95° C., 55° C. and 68° C. for 15 seconds, 30 seconds and 30 seconds, respectively. Each assay included a standard curve of four serial dilution points of control cDNA. The HPRT1 housekeeping gene was used for quantification. All oligonucleotide primers (Table 2) were synthesized by Genecust/Distribio (Evry, France). The specificity of the amplified product was monitored by examining the melting curve of the product and confirmed by analysis on agarose gel electrophoresis.
(§2) All assays were carried out in triplicate and results were plotted as mean±S.E.M. One-way analysis of variance was performed followed by Duncan's multiple range tests in order to compare the differences between groups. Differences were considered statistically significant when p<0.05.

[2] = test system: human PBMC; assay: PG levels (PGE2, PGD2, 15d-PGJ2) in culture medium of human PBMC cultured with and without TNF-α, EIA (Example 3); format: cell-based
Experimental: as §1
Commercially available EIA kits were used for the determination of PGE2 levels (Oxford Biomedical Research, UK) and 15d-PGJ2 levels (Assay designs, Euromedex, France) in culture media. Measurement of PGD2 levels was obtained using the prostaglandin D2-MOX EIA kit (Cayman Chemical, Euromedex). In this case, and prior to assay, the fresh samples were immediately treated with the MOX-HCl reagent, which converted PGD2 into PGD2-MOX, thus preventing any further chemical degradation.
as §2

[3] = 100 nM + TNF-α (10 ng/mL), 24 h

CC12CCC3C(C1CCC2=O)[C@@H](O)C[C@H]1C[C@@H](O)CCC31C (stereo partly drawn) [Compound 7β-OH-EPIA, 7β-hydroxy-EPIAndrosterone] was tested, and the “mPGES1 (mRNA), mRNA production relative to controls” value ([1]; 1 nM + TNF-α (10 ng/mL), 4 h) was 1.11 ± 0.235, the “mPGES1 (mRNA), mRNA production relative to controls” value ([1]; 1 nM + TNF-α (10 ng/mL), 24 h) was 21.6 ± 4.28^ and the “mPGES1 (mRNA), mRNA production relative to controls” value ([1]; 1 nM, 4 h, without TNF-α) was 0.76 ± 0.053^b. The “mPGES1 (mRNA), mRNA production relative to controls” value ([1]; 1 nM, 24 h, without TNF-α) was 1.77 ± 0.324^a, the “mPGES1 (mRNA), mRNA production relative to controls” value ([1]; 10 nM + TNF-α (10 ng/mL), 4 h) was 1.15 ± 0.183 and the “mPGES1 (mRNA), mRNA production relative to controls” value ([1]; 10 nM + TNF-α (10 ng/mL), 24 h) was 6.29 ± 1.131^d. For the same compound, the “mPGES1 (mRNA), mRNA production relative to controls” value ([1]; 10 nM, 4 h, without TNF-α) was 0.94 ± 0.067, the “mPGES1 (mRNA), mRNA production relative to controls” value ([1]; 10 nM, 24 h, without TNF-α) was 3.61 ± 0.662^a and the “mPGES1 (mRNA), mRNA production relative to controls” value ([1]; 100 nM + TNF-α (10 ng/mL), 4 h) was 1.29 ± 0.323. The “mPGES1 (mRNA), mRNA production relative to controls” value [1, 3] was 6.79 ± 2.898^d, the “mPGES1 (mRNA), mRNA production relative to controls” value ([1]; 100 nM, 4 h, without TNF-α) was 0.71 ± 0.058^b and the “mPGES1 (mRNA), mRNA production relative to controls” value ([1]; 100 nM, 24 h, without TNF-α) was 2.63 ± 0.475^a. It also gave a 15d-PGJ2 ([2]; 1 nM + TNF-α (10 ng/mL), 4 h) of 0.37 ± 0.029 ng/mL, a PGD2 ([2]; 1 nM + TNF-α (10 ng/mL), 4 h) of 0.22 ± 0.082 ng/mL and a PGE2 ([2]; 1 nM + TNF-α (10 ng/mL), 4 h) of 0.50 ± 0.012 ng/mL. The 15d-PGJ2 ([2]; 1 nM + TNF-α (10 ng/mL), 24 h) was 2.18 ± 0.183^c ng/mL, the PGD2 ([2]; 1 nM + TNF-α (10 ng/mL), 24 h) was 0.47 ± 0.013^d ng/mL and the PGE2 ([2]; 1 nM + TNF-α (10 ng/mL), 24 h) was 0.70 ± 0.001^b ng/mL. The 15d-PGJ2 ([2]; 1 nM, 4 h, without TNF-α) was 0.39 ± 0.080 ng/mL, the PGD2 ([2]; 1 nM, 4 h, without TNF-α) was 0.18 ± 0.005 ng/mL and the PGE2 ([2]; 1 nM, 4 h, without TNF-α) was 0.26 ± 0.011 ng/mL. For the same compound, the 15d-PGJ2 ([2]; 1 nM, 24 h, without TNF-α) was 0.85 ± 0.014^a ng/mL, the PGD2 ([2]; 1 nM, 24 h, without TNF-α) was 0.21 ± 0.012^a ng/mL and the PGE2 ([2]; 1 nM, 24 h, without TNF-α) was 0.26 ± 0.015 ng/mL. The 15d-PGJ2 ([2]; 10 nM + TNF-α (10 ng/mL), 4 h) was 0.40 ± 0.007 ng/mL, the PGD2 ([2]; 10 nM + TNF-α (10 ng/mL), 4 h) was 0.22 ± 0.010 ng/mL and the PGE2 ([2]; 10 nM + TNF-α (10 ng/mL), 4 h) was 0.49 ± 0.021 ng/mL. The 15d-PGJ2 ([2]; 10 nM + TNF-α (10 ng/mL), 24 h) was 2.77 ± 0.021^c ng/mL, the PGD2 ([2]; 10 nM + TNF-α (10 ng/mL), 24 h) was 0.42 ± 0.009^d ng/mL and the PGE2 ([2]; 10 nM + TNF-α (10 ng/mL), 24 h) was 0.80 ± 0.012^b ng/mL. The 15d-PGJ2 ([2]; 10 nM, 4 h, without TNF-α) was 0.39 ± 0.010 ng/mL, the PGD2 ([2]; 10 nM, 4 h, without TNF-α) was 0.19 ± 0.020 ng/mL and the PGE2 ([2]; 10 nM, 4 h, without TNF-α) was 0.23 ± 0.022 ng/mL. The 15d-PGJ2 ([2]; 10 nM, 24 h, without TNF-α) was 0.91 ± 0.032^a ng/mL, the PGD2 ([2]; 10 nM, 24 h, without TNF-α) was 0.23 ± 0.001^a ng/mL and the PGE2 ([2]; 10 nM, 24 h, without TNF-α) was 0.23 ± 0.021 ng/mL. It also gave a 15d-PGJ2 ([2]; 100 nM + TNF-α (10 ng/mL), 4 h) of 0.37 ± 0.016 ng/mL, a PGD2 ([2]; 100 nM + TNF-α (10 ng/mL), 4 h) of 0.23 ± 0.007 ng/mL and a PGE2 ([2]; 100 nM + TNF-α (10 ng/mL), 4 h) of 0.42 ± 0.020 ng/mL. The 15d-PGJ2 [2, 3] was 0.85 ± 0.019^ ng/mL, the PGD2 [2, 3] was 0.40 ± 0.030^d ng/mL and the PGE2 [2, 3] was 0.71 ± 0.012^b ng/mL. For the same compound, the 15d-PGJ2 ([2]; 100 nM, 4 h, without TNF-α) was 0.37 ± 0.018 ng/mL, the PGD2 ([2]; 100 nM, 4 h, without TNF-α) was 0.20 ± 0.013 ng/mL and the PGE2 ([2]; 100 nM, 4 h, without TNF-α) was 0.22 ± 0.020 ng/mL. For the same compound, the 15d-PGJ2 ([2]; 100 nM, 24 h, without TNF-α) was 1.70 ± 0.016^a ng/mL, the PGD2 ([2]; 100 nM, 24 h, without TNF-α) was 0.24 ± 0.031^a ng/mL and the PGE2 ([2]; 100 nM, 24 h, without TNF-α) was 0.24 ± 0.022 ng/mL.
